Usually Kd stands for the concentration at which binding is half-saturated.

One assay addresses T1, RANKL (Homo sapiens, UniProt O14788).
T1 construct: gene TNFSF11; extracellular domain
T1 sequence (O14788 69-317 limits assumed): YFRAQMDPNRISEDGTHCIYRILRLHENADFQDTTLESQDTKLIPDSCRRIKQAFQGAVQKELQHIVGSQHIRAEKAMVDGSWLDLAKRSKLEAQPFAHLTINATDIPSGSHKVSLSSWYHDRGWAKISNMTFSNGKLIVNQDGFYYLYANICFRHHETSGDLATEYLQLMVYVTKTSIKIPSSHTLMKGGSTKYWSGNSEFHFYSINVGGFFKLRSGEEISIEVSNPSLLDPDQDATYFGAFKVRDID
The assay is described as follows: SPR kinetics (Biacore S200), RANKL amine-coupled on CM5 chip. The class given is binding. (In general: SPR reads the build-up and loss of mass on a sensor chip optically.)

In a further assay the target is T2, RANK (Homo sapiens, UniProt Q9Y6Q6).
T2 construct: gene TNFRSF11A; extracellular domain
T2 sequence (Q9Y6Q6 30-212 limits assumed): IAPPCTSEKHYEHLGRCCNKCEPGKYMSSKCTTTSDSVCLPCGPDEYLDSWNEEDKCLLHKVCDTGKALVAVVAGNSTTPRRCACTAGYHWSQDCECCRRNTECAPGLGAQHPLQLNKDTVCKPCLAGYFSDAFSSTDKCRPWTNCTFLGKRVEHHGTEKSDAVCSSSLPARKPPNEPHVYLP
The assay is described as follows: SPR kinetics (Biacore S200), RANK amine-coupled on CM5 chip. It counts as binding.

As for `COc1cccc2c1C[C@@H]1c3c(cc4c(c3-2)OCO4)CCN1C` [SA, Stephanine], the dissociation constant (Kd) came out at 76.5 µM on RANKL and 3.7 µM on RANK.

These data come from article PMC11619157, “Stephanine Protects Against Osteoporosis by Suppressing Osteoclastogenesis via Inhibition of the RANKL—RANK Interaction” (Journal of Cellular and Molecular Medicine, 2024).
